Test results reported in ChEMBL document CHEMBL1142572, “A Madagascar Sponge Batzella sp. as a source of alkylated iminosugars” (2005).

tested on: Staphylococcus epidermidis; experiment: Antimicrobial activity against Staphylococcus epidermidis ATCC 12228; type: functional

MIC	Structure (SMILES)
≤ 6.3 µg/mL	CCCCCCCCCCC(O)C[C@H]1C[C@H](O)[C@@H](O)[C@@H](CO)N1 (stereo partly drawn) [BATZELLASIDE A]
≤ 6.3 µg/mL	CCCCCCCCCCCC(O)C[C@H]1C[C@H](O)[C@@H](O)[C@@H](CO)N1 (stereo partly drawn) [BATZELLASIDE C]
≤ 6.3 µg/mL	CCCCCCCCCC(O)C[C@H]1C[C@H](O)[C@@H](O)[C@@H](CO)N1 (stereo partly drawn) [BATZELLASIDE B]
